Source: the NIST ThermoML archive (doi:10.1016/j.fluid.2006.05.007)

Assay: xn = mol fraction of the nth substance listed
Conditions: Fluid (supercritical or subcritical phases)

CO [methanol] + O
Conditions | mass density [kg/m3]
572.91 K, 10085 kPa, x1 = 0.3044 | 77.4
573.08 K, 10068 kPa, x1 = 0.4031 | 79.4
573.15 K, 10080 kPa, x1 = 0.5144 | 83.3
573.26 K, 10081 kPa, x1 = 0.59 | 85.5
573.31 K, 10076 kPa, x1 = 0.7905 | 92.4
573.34 K, 10081 kPa, x1 = 0.8802 | 94.8
573.35 K, 10077 kPa, x1 = 0.6896 | 87.7
573.43 K, 10083 kPa, x1 = 0.0997 | 405
573.46 K, 11526 kPa, x1 = 0.4031 | 107.2
573.49 K, 10078 kPa, x1 = 0.0494 | 679.2
573.52 K, 11527 kPa, x1 = 0.5144 | 108.7
573.63 K, 11542 kPa, x1 = 0.59 | 111.3
573.67 K, 11523 kPa, x1 = 0.6896 | 113.3
573.72 K, 11537 kPa, x1 = 0.0175 | 704.3
573.74 K, 11532 kPa, x1 = 0.7905 | 115.7
573.74 K, 11535 kPa, x1 = 0.8802 | 118.9
573.75 K, 11533 kPa, x1 = 0.007 | 712.1
573.78 K, 11525 kPa, x1 = 0.0997 | 646.8
573.78 K, 11527 kPa, x1 = 0.1971 | 534.3
573.78 K, 11530 kPa, x1 = 0.1484 | 611.5
573.79 K, 11533 kPa, x1 = 0.0494 | 682.1
574.29 K, 20003 kPa, x1 = 0.0997 | 671.8
574.34 K, 20013 kPa, x1 = 0.3044 | 560.2
574.34 K, 20016 kPa, x1 = 0.6896 | 398.6
574.35 K, 20000 kPa, x1 = 0.0494 | 701.9
574.37 K, 19997 kPa, x1 = 0.1484 | 645.8
574.37 K, 20007 kPa, x1 = 0.59 | 431.4
574.37 K, 20014 kPa, x1 = 0.1971 | 617
574.37 K, 20019 kPa, x1 = 0.4031 | 512.2
574.38 K, 20012 kPa, x1 = 0.7905 | 375.2
574.39 K, 20005 kPa, x1 = 0.5144 | 460.1
574.45 K, 20012 kPa, x1 = 0.8802 | 354.5
588.56 K, 13757 kPa, x1 = 0.3044 | 135.3
588.59 K, 13753 kPa, x1 = 0.5144 | 131.6
588.63 K, 13755 kPa, x1 = 0.4031 | 133
588.68 K, 13752 kPa, x1 = 0.7905 | 137.1
588.69 K, 13759 kPa, x1 = 0.59 | 132.6
588.74 K, 13760 kPa, x1 = 0.6896 | 134.8
588.76 K, 13753 kPa, x1 = 0.1971 | 409.6
588.79 K, 13754 kPa, x1 = 0.8802 | 139.5
588.8 K, 13760 kPa, x1 = 0.1484 | 563.2
588.81 K, 13767 kPa, x1 = 0.007 | 679.9
588.83 K, 13755 kPa, x1 = 0.0997 | 606.6
588.84 K, 13753 kPa, x1 = 0.0175 | 672.4
588.85 K, 13755 kPa, x1 = 0.0494 | 647.6
